Assay [1] concerns the target T1, Adrenergic β2 (Homo sapiens, UniProt P07550).
T1 construct: Adherent H292 cells were removed from tissue culture flasks; endogenous in cells; host or cells: H292 cells
Nature of the assay: Adrenergic β2 mediated cAMP production in H292 cells. In kind it is cell-based. The note with it: for EC50: H292 cells, cAMP by AlphaScreen, 60 minutes at room temperature, rolipram 300 μM, read-out: β2 pEC50 (converted); for β2 Int Act: Intrinsic Activity as a fraction relative to the maximum activity determined for formoterol. The procedure, abridged:
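H292 cells pretreated 10 min with rolipram (300 μM final), then exposed to agonist 60 min at room temperature in HEPES-buffered HBSS, 1.6% DMSO final. Lysate cAMP quantified by AlphaScreen against a cAMP standard curve; four-parameter fit gives pEC50 and intrinsic activity relative to formoterol maximum.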
A general note: Changes in cAMP serve as a functional read-out for many G protein-coupled receptors.

Assay [2] addresses T2, recombinant human α1D receptor (Homo sapiens, UniProt P25100).
T2 construct: expressed in transfected cells; host or cells: HEK293
T2 sequence (P25100 1-572): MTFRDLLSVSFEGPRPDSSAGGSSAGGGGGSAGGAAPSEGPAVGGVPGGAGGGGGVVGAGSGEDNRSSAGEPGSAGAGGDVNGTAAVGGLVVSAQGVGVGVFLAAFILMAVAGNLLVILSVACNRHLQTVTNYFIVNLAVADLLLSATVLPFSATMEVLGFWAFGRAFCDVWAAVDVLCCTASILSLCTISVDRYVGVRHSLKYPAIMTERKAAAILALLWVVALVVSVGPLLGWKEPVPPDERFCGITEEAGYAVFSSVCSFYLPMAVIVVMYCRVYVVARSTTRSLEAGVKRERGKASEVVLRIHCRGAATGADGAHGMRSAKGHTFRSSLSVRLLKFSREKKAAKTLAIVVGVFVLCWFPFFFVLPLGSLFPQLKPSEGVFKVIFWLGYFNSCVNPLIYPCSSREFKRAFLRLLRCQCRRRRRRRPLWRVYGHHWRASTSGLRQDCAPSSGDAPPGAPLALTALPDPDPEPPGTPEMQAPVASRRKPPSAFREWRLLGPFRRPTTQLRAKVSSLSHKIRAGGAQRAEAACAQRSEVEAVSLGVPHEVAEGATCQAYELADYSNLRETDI
Nature of the assay: Adrenergic α1D selectivity binding assay ([3H]-prazosin). The note with it: inhibition of [3H]-prazosin (0.3 nM) binding, HEK293 membranes; read-out: α1 bind pIC50 (converted). The essentials: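 HEK293 membranes with recombinant human α1D receptor incubated 2 h at room temperature with 0.3 nM [3H]-prazosin and compound in 50 mM HEPES, 1 mM EDTA, 0.1% gelatin, pH 7.4; BMY7378 (10 μM) defined non-specific binding. Filter-bound radioactivity counted; pIC50 from four-parameter logistic fit.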

17 molecules from US20100022491A1, “4-HYDROXY-2-OXO-2,3-DIHYDRO-1,3-BENZOTHIAZOL-7YL COMPOUNDS FOR MODULATION OF B2-ADRENORECEPTOR ACTIVITY” (ASTRAZENECA AB, priority 2006, published 2010) can be followed below.

Counter-ions that a name gives are not always drawn.

T1 sequence (P07550 whole entry): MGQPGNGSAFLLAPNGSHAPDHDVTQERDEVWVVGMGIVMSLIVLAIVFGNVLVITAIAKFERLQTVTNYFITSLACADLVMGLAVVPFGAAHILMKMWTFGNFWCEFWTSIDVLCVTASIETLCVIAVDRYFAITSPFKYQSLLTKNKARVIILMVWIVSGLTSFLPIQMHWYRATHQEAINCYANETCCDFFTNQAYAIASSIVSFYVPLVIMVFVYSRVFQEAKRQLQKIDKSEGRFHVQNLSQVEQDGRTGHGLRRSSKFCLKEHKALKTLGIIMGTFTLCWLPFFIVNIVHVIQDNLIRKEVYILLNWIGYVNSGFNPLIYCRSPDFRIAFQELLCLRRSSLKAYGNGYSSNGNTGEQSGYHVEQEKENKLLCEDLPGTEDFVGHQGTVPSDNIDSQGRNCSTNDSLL

With `O=C(CCNCCc1ccccc1)N(CCNCCc1ccc(O)c2[nH]c(=O)sc12)CC12CC3CC(CC(C3)C1)C2` [Example 59, N^1-(1-Adamantylmethyl)-N^1-(2-{[2-(4-hydroxy-2-oxo-2,3-dihydro-1,3-benzothiazol-7-yl)ethyl]amino}ethyl)-N^3-(2-phenylethyl)-β-alaninamide bis-trifluoroacetic acid salt], in assay [1], the EC50 is 5.01 nM and the “β2 Int Act” value was 0.85. Moreover, the IC50 in assay [2] is 100 nM.
The matching figures for `O=C(CCNCCc1cccc(F)c1)N(CCNCCc1ccc(O)c2[nH]c(=O)sc12)CC12CC3CC(CC(C3)C1)C2` [Example 60, N^1-(1-Adamantylmethyl)-N^3-[2-(3-fluorophenyl)ethyl]-N^1-(2-{[2-(4-hydroxy-2-oxo-2,3-dihydro-1,3-benzothiazol-7-yl)ethyl]amino}ethyl)-β-alaninamide bis-trifluoroacetic acid salt]: 20 nM, 0.76 and 316 nM.
In the case of `O=C(CCNCCc1ccc(F)cc1)N(CCNCCc1ccc(O)c2[nH]c(=O)sc12)CC12CC3CC(CC(C3)C1)C2` [Example 61, N^1-(1-Adamantylmethyl)-N^3-[2-(4-fluorophenyl)ethyl]-N^1-(2-{[2-(4-hydroxy-2-oxo-2,3-dihydro-1,3-benzothiazol-7-yl)ethyl]amino}ethyl)-β-alaninamide bis-trifluoroacetic acid salt], in assay [1], the EC50 is 10 nM and the “β2 Int Act” value was found to be 0.79. Further, the IC50 in assay [2] was 316 nM.
`O=C(CCNCCc1ccccc1)N(CCNCCc1ccc(O)c2[nH]c(=O)sc12)C1CCSCC1` [Example 62, N-(2-{[2-(4-Hydroxy-2-oxo-2,3-dihydro-1,3-benzothiazol-7-yl)ethyl]amino}ethyl)-N^3-(2-phenylethyl)-N^1-(tetrahydro-2H-thiopyran-4-yl)-β-alaninamide bis-trifluoroacetic acid salt]: in assay [1], the EC50 is 6.31 nM and the “β2 Int Act” value is on record as 0.87. Moreover, the IC50 in assay [2] is 63.1 nM.
In the case of `CCCC(CCC)N(CCNCCc1ccc(O)c2[nH]c(=O)sc12)C(=O)CCNCCc1cccc(F)c1` [Example 63, N^3-[2-(3-Fluorophenyl)ethyl]-N^1-(2-{[2-(4-hydroxy-2-oxo-2,3-dihydro-1,3-benzothiazol-7-yl)ethyl]amino}ethyl)-N^1-(1-propylbutyl)-β-alaninamide bis-trifluoroacetic acid salt], in assay [1], the EC50 was 79.4 nM and the “β2 Int Act” value came to 0.93. In addition, in assay [2], the IC50 is 158 nM.
As to `CCCC(CCC)N(CCNCCc1ccc(O)c2[nH]c(=O)sc12)C(=O)CCNCCc1ccc(F)cc1` [Example 64, N^3-[2-(4-Fluorophenyl)ethyl]-N^1-(2-{[2-(4-hydroxy-2-oxo-2,3-dihydro-1,3-benzothiazol-7-yl)ethyl]amino}ethyl)-N^1-(1-propylbutyl)-β-alaninamide bis-trifluoroacetic acid salt], in assay [1], the EC50 is 316 nM and the “β2 Int Act” value was 0.70. Moreover, the IC50 in assay [2] is 79.4 nM.
With `CC(C)(CO)CN(CCNCCc1ccc(O)c2[nH]c(=O)sc12)C(=O)CCNCCc1ccccc1Cl` [Example 65, N^3-[2-(2-Chlorophenyl)ethyl]-N^1-(3-hydroxy-2,2-dimethylpropyl)-N^1-(2-{[2-(4-hydroxy-2-oxo-2,3-dihydro-1,3-benzothiazol-7-yl)ethyl]amino}ethyl)-β-alaninamide bis-trifluoroacetic acid salt], in assay [1], the EC50 was 12.6 nM and the “β2 Int Act” value turned out to be 0.59. In assay [2], the IC50 was 100 nM.
In the case of `CC(C)(CO)CN(CCNCCc1ccc(O)c2[nH]c(=O)sc12)C(=O)CCNCCc1cccc(Cl)c1` [Example 66, N^3-[2-(3-Chlorophenyl)ethyl]-N^1-(3-hydroxy-2,2-dimethylpropyl)-N^1-(2-{[2-(4-hydroxy-2-oxo-2,3-dihydro-1,3-benzothiazol-7-yl)ethyl]amino}ethyl)-β-alaninamide bis-trifluoroacetic acid salt], in assay [1], the EC50 is 12.6 nM and the “β2 Int Act” value turned out to be 0.59. In assay [2], the IC50 was 251 nM.
On the same counts, the results for `CC(C)(CO)CN(CCNCCc1ccc(O)c2[nH]c(=O)sc12)C(=O)CCNCCc1cccc(Cl)c1Cl` [Example 67, N^3-[2-(2,3-Dichlorophenyl)ethyl]-N^1-(3-hydroxy-2,2-dimethylpropyl)-N^1-(2-{[2-(4-hydroxy-2-oxo-2,3-dihydro-1,3-benzothiazol-7-yl)ethyl]amino}ethyl)-β-alaninamide bis-trifluoroacetic acid salt] are 20 nM, 0.70 and 200 nM.
On the same counts, the results for `COc1ccc(CCNCCC(=O)N(CCNCCc2ccc(O)c3[nH]c(=O)sc23)C2CCCCC2)cc1` [Example 68, N^1-Cyclohexyl-N^1-(2-{[2-(4-hydroxy-2-oxo-2,3-dihydro-1,3-benzothiazol-7-yl)ethyl]amino}ethyl)-N^3-[2-(4-methoxyphenyl)ethyl]-β-alaninamide bis-trifluoroacetic acid salt] are 10 nM, 0.68 and 200 nM.
In the case of `NS(=O)(=O)c1ccc(CCNCCC(=O)N(CCNCCc2ccc(O)c3[nH]c(=O)sc23)C2CCCCC2)cc1` [Example 69, N^3-{2-[4-(Aminosulfonyl)phenyl]ethyl}-N^1-cyclohexyl-N^1-(2-{[2-(4-hydroxy-2-oxo-2,3-dihydro-1,3-benzothiazol-7-yl)ethyl]amino}ethyl)-β-alaninamide bis-trifluoroacetic acid salt], in assay [1], the EC50 was 2 nM and the “β2 Int Act” value was found to be 0.82. In assay [2], the IC50 was 158 nM.
On the same counts, the results for `O=C(CCNCCc1cccc(O)c1)N(CCNCCc1ccc(O)c2[nH]c(=O)sc12)C1CCCCC1` [Example 71, N^1-Cyclohexyl-N^1-(2-{[2-(4-hydroxy-2-oxo-2,3-dihydro-1,3-benzothiazol-7-yl)ethyl]amino}ethyl)-N^3-[2-(3-hydroxyphenyl)ethyl]-β-alaninamide bis-trifluoroacetic acid salt] are 0.398 nM, 0.97 and 200 nM.
The matching figures for `O=C(CCNCCc1ccc(Cl)s1)N(CCNCCc1ccc(O)c2[nH]c(=O)sc12)C1CCCCC1` [Example 72, N^3-[2-(5-Chloro-2-thienyl)ethyl]-N^1-cyclohexyl-N^1-(2-{[2-(4-hydroxy-2-oxo-2,3-dihydro-1,3-benzothiazol-7-yl)ethyl]amino}ethyl)-β-alaninamide bis-trifluoroacetic acid salt]: 3.98 nM, 0.89 and 398 nM.
The matching figures for `O=C(CCNCCc1ccc(F)c(F)c1)N(CCNCCc1ccc(O)c2[nH]c(=O)sc12)C1CCCCC1` [Example 73, N^1-Cyclohexyl-N^3-[2-(3,4-difluorophenyl)ethyl]-N^1-(2-{[2-(4-hydroxy-2-oxo-2,3-dihydro-1,3-benzothiazol-7-yl)ethyl]amino}ethyl)-β-alaninamide bis-trifluoroacetic acid salt]: 5.01 nM, 0.85 and 398 nM.
On to `O=C(CCNC[C@@H](O)c1ccccc1)N(CCNCCc1ccc(O)c2[nH]c(=O)sc12)C1CCCCC1` [Example 74, N^1-Cyclohexyl-N^1-(2-{[2-(4-hydroxy-2-oxo-2,3-dihydro-1,3-benzothiazol-7-yl)ethyl]amino}ethyl)-N^3-[(2S)-2-hydroxy-2-phenylethyl]-β-alaninamide bis-trifluoroacetic acid salt], for which, in assay [1], the EC50 was 12.6 nM and the “β2 Int Act” value is 0.79. Moreover, the IC50 in assay [2] is 251 nM.
Consider `O=C(CCNC[C@H](O)c1ccccc1)N(CCNCCc1ccc(O)c2[nH]c(=O)sc12)C1CCCCC1` [Example 75, N^1-Cyclohexyl-N^1-(2-{[2-(4-hydroxy-2-oxo-2,3-dihydro-1,3-benzothiazol-7-yl)ethyl]amino}ethyl)-N^3-[(2R)-2-hydroxy-2-phenylethyl]-β-alaninamide bis-trifluoroacetic acid salt], for which, in assay [1], the EC50 was 10 nM and the “β2 Int Act” value is 0.91. The IC50 in assay [2] was 251 nM.
On the same counts, the results for `O=C(CCNCCc1ccc2c(c1)OCO2)N(CCNCCc1ccc(O)c2[nH]c(=O)sc12)C1CCCCC1` [Example 76, N^3-[2-(1,3-Benzodioxol-5-yl)ethyl]-N^1-cyclohexyl-N^1-(2-{[2-(4-hydroxy-2-oxo-2,3-dihydro-1,3-benzothiazol-7-yl)ethyl]amino}ethyl)-β-alaninamide bis-trifluoroacetic acid salt] are 6.31 nM, 0.68 and 158 nM.
